Test results as given in patent US8293753B2, “Substituted 2-carboxamide cycloamino ureas” (Novartis AG, priority 2009, dated 2012).

Key:
Format in all cases: biochemical
PI3Kα = molecular target: T1, PI3Kα (Homo sapiens, UniProt P42336); assay: PI3K KinaseGlo assay, PI3Kalpha; settings: 1 μM ATP, 10 nM enzyme, 30 mins
T1 construct: His (C); made in house; host or cells: baculovirus / Tn5 insect cells

PI3Kδ = molecular target: T2, PI3Kδ (Homo sapiens, UniProt O00329); assay: PI3K KinaseGlo assay, PI3Kdelta; settings: for IC50: KinaseGlo, 1 μM ATP, 10 nM enzyme, 30 mins; for PI3Kdelta (selectivity): selectivity factor: PI3Kdelta IC50 divided by PI3Kalpha IC50
T2 construct: p85iSH2(461-568)-GGGGGG-p110δ(2-1044)-His; His (C); made in house; host or cells: baculovirus / Tn5 insect cells
T2 sequence (O00329 with tags, fused parts or gaps): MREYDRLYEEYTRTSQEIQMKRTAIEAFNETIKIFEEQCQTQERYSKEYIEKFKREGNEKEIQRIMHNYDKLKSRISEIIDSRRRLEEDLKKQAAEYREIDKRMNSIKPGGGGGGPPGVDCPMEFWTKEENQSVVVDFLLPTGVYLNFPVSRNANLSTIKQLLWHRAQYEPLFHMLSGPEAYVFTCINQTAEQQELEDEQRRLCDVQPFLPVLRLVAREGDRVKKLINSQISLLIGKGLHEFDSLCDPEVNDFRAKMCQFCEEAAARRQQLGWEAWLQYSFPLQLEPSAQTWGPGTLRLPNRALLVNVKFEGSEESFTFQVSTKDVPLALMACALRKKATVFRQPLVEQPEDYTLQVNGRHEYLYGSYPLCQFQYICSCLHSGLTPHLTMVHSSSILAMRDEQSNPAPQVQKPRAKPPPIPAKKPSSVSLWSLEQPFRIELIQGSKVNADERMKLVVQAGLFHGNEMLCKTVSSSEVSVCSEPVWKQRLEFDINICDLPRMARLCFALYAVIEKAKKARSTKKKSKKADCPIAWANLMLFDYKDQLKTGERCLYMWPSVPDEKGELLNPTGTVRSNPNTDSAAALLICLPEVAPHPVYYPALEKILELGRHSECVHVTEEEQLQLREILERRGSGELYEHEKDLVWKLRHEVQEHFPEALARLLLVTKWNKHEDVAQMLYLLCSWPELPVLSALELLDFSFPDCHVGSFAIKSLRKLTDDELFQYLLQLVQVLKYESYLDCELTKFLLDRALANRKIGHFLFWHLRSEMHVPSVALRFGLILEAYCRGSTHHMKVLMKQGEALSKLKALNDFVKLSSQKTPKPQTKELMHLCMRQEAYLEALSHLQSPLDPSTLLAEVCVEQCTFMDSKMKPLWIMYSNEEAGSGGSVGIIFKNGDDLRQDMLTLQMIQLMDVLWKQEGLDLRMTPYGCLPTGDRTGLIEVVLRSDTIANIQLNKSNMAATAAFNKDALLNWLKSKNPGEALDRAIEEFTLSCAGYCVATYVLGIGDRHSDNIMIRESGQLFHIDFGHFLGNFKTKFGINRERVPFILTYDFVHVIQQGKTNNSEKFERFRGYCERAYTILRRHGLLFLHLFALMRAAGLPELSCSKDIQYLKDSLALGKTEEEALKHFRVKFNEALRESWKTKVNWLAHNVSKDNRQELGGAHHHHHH

PI3Kβ = molecular target: T3, PI3Kβ (Homo sapiens, UniProt P42338); assay: PI3K KinaseGlo assay, PI3Kbeta; settings: for IC50: KinaseGlo, 1 μM ATP, 25 nM enzyme, 30 mins; for PI3Kbeta (selectivity): selectivity factor: PI3Kbeta IC50 divided by PI3Kalpha IC50
T3 construct: His (C); made in house; host or cells: baculovirus / Tn5 insect cells
T3 sequence (P42338 with tags, fused parts or gaps): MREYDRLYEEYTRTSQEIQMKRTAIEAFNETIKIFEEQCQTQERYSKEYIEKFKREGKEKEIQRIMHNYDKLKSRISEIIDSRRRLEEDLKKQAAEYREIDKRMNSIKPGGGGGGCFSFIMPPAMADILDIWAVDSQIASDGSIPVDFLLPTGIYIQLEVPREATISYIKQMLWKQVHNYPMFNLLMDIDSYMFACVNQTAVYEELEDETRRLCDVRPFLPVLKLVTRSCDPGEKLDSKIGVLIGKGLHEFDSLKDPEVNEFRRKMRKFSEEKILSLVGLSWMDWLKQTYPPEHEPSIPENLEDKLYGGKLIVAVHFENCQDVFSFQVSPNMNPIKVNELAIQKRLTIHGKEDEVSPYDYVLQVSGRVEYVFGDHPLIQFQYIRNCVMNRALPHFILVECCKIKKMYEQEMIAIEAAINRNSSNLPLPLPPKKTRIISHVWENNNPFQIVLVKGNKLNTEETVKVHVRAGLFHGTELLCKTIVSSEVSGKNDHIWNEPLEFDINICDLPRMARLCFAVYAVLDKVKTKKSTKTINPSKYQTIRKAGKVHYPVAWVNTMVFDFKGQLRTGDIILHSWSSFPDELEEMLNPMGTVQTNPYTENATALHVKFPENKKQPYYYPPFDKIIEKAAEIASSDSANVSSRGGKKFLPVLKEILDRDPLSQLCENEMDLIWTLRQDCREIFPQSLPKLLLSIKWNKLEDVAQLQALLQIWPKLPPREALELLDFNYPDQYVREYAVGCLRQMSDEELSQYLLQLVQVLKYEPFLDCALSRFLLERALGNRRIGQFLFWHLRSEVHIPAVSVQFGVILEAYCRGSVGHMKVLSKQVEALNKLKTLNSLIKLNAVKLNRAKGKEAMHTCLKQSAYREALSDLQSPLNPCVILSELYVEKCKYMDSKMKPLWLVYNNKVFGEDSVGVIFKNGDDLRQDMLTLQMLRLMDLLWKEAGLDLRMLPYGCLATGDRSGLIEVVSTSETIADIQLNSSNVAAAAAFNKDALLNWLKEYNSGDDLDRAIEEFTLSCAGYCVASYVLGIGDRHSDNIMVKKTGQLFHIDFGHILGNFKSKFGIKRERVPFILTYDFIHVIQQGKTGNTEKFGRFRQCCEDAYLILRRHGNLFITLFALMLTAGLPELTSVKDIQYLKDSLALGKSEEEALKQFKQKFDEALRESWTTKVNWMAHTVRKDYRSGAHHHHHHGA

PI3Kγ = molecular target: T4, PI3Kγ (Homo sapiens, UniProt P48736, Q459R); assay: PI3K KinaseGlo assay, PI3Kgamma; settings: for IC50: KinaseGlo, 1 μM ATP, 150 nM enzyme, 90 mins; for PI3Kgamma (selectivity): selectivity factor: PI3Kgamma IC50 divided by PI3Kalpha IC50
T4 construct: His (C); made in house; host or cells: Tn5 insect cells; construct obtained from Roger Williams lab (MRC LMB)
T4 sequence (P48736 with tags, fused parts or gaps Q459R): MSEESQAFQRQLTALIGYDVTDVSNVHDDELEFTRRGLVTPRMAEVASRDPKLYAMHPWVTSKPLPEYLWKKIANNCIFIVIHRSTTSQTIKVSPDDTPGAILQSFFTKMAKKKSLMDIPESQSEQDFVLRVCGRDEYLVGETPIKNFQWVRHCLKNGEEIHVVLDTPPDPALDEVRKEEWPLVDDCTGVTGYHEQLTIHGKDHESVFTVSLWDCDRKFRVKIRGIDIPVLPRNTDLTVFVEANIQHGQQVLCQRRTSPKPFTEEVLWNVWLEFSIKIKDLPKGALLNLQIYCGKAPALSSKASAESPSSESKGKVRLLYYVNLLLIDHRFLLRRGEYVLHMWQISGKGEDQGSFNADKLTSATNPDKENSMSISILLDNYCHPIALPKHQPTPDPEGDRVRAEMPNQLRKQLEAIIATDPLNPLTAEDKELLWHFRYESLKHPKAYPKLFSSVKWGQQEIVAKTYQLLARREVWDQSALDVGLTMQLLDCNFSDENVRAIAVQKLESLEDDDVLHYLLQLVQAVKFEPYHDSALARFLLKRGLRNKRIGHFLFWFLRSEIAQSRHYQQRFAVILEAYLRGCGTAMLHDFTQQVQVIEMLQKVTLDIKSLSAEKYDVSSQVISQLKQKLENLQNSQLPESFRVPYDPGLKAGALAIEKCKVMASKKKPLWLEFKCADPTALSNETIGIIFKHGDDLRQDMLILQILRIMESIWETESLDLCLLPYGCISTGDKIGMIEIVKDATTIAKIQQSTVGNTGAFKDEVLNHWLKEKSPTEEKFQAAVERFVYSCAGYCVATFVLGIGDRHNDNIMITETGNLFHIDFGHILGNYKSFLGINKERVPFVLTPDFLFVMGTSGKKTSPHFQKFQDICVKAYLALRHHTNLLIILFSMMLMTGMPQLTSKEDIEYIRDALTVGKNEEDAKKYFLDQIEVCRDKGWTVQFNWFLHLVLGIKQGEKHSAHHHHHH
Procedure: PI3K KinaseGlo assay: […] of compound dilutions were dispensed onto black 384-well low volume Non Binding Styrene (NBS) plates (Costar Cat. No. NBS#3676). L-a-phosphatidylinositol (PI), provided as 10 mg/ml solution in methanol, was transferred into a glass tube and dried under nitrogen beam. It was then resuspended in 3% OctylGlucoside (OG) by vortexing and stored at 4° C. The KinaseGlo Luminescent Kinase Assay (Promega, Madison/WI, USA) is a homogeneous HTS method of measuring kinase activity by quantifying the amount of ATP remaining in solution following a kinase reaction.
5 μL of a mix of PI/OG with the PI3K subtype were added (Table 1). Kinase reactions were started by addition of 5 μl of ATP-mix containing in a final volume 10 μL 10 mM TRIS-HCl pH 7.5, 3 mM MgCl2, 50 mM NaCl, 0.05% CHAPS, 1 mM DTT and 1 μM ATP, and occurred at room temperature. Reactions were stopped with 10 μl of KinaseGlo and plates were read 10 mins later in a Synergy2 reader using an integration time of 0.1 seconds per well. […] The standard was used as a reference compound and included in all assay plates in the form of 16 dilution points in duplicate.
The PI3Kα, PI3Kβ and PI3Kδ constructs are fusion of p85α iSH2 domain and the respective p110 isoforms. The p85α fragment and p110 isoform genes were generated by PCR from first strand cDNA generated by RT-PCR from commercial RNA from placenta, testis and brain as described below. The PI3Kγ construct was obtained from Roger Williams lab, MRC Laboratory of Molecular Biology, Cambridge, UK (November, 2003) and is described (Pacold, Michael E.; Suire, Sabine; Perisic, Olga; Lara-Gonzalez, Samuel; Davis, Colin T.; Walker, Edward H.; Hawkins, Phillip T.; Stephens, Len; Eccleston, John F.; Williams, Roger L. Crystal structure and functional analysis of Ras binding to its effector phosphoinositide 3-kinase gamma. Cell (2000), 103(6), 931-943).
Construct obtained from Roger Williams lab, MRC Laboratory of Molecular Biology, Cambridge, UK (November, 2003). Description of the construct in (Pacold, Michael E.; Suire, Sabine; Perisic, Olga; Lara-Gonzalez, Samuel; Davis, Colin T.; Walker, Edward H.; Hawkins, Phillip T.; Stephens, Len; Eccleston, John F.; Williams, Roger L. Crystal structure and functional analysis of Ras binding to its effector phosphoinositide 3-kinase gamma. Cell (2000), 103(6), 931-943). Constructs lacking the N-terminal 144 aa.

T1 sequence (P42336 with tags, fused parts or gaps): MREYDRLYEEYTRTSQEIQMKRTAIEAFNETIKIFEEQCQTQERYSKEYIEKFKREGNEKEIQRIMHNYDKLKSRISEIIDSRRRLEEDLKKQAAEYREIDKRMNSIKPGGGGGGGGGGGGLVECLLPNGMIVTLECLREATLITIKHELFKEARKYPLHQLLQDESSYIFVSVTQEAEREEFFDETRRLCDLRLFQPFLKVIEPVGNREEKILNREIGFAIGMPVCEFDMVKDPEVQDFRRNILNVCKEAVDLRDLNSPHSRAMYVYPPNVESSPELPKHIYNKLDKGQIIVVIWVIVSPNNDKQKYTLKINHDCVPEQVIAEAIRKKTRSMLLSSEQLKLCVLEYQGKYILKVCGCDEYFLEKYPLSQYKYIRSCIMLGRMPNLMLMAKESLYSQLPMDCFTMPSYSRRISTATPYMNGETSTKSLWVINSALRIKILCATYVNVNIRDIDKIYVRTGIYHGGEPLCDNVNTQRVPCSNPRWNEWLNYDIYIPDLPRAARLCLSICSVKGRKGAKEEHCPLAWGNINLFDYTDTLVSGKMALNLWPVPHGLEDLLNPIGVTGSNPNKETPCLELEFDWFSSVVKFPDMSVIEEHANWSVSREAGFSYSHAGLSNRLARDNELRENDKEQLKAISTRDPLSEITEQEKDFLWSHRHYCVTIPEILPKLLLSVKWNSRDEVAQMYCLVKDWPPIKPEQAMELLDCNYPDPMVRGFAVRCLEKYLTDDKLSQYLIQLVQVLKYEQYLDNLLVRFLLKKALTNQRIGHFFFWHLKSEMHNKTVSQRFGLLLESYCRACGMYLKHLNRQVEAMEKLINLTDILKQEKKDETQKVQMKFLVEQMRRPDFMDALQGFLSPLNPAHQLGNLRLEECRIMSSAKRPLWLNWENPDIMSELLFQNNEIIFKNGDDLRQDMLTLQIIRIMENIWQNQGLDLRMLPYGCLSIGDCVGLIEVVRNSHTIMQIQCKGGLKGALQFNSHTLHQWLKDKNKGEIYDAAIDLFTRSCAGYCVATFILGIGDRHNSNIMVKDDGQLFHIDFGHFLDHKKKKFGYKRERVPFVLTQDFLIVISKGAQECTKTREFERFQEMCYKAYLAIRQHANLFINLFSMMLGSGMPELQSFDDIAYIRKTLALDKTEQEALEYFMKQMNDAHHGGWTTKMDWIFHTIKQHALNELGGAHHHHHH

SMILES | IC50 (PI3Kα) [µM] | IC50 (PI3Kδ) [µM] | PI3Kdelta (selectivity) (PI3Kδ) | IC50 (PI3Kβ) [µM] | PI3Kbeta (selectivity) (PI3Kβ) | IC50 (PI3Kγ) [µM] | PI3Kgamma (selectivity) (PI3Kγ)
Cc1nc(NC(=O)N2CC[C@@H](C)[C@H]2C(N)=O)sc1-c1ccnc(C2(C)CC2)c1 [Example 1, (2S,3R)-3-Methyl-pyrrolidine-1,2-dicarboxylic acid 2-amide 1-({4-methyl-5-[2-(1-methyl-cyclopropyl)-pyridin-4-yl]-thiazol-2-yl}-amide)] | 0.007 | 0.168 | (24) | 2.6 | (370) | 0.175 | (25)
Cc1nc(NC(=O)N2CC[C@@H](C)[C@H]2C(N)=O)sc1-c1ccnc(C(C)(C)C(F)(F)F)c1 [Example 2, (2S,3R)-3-Methyl-pyrrolidine-1,2-dicarboxylic acid 2-amide 1-({4-methyl-5-[2-(2,2,2-trifluoro-1,1-dimethyl-ethyl)-pyridin-4-yl]-thiazol-2-yl}-amide)] | 0.027 | 0.059 | (2) | 1.2 | (44) | 0.104 | (3)
CC(=O)NC[C@@H]1CCN(C(=O)Nc2nc(C)c(-c3ccnc(C4(C)CC4)c3)s2)[C@@H]1C(N)=O [Example 5, (2S,3S)-3-(Acetylamino-methyl)pyrrolidine-1,2-dicarboxylic acid 2-amide 1-({4-methyl-5-[2-(1-methyl-cyclopropyl)-pyridin-4-yl]-thiazol-2-yl}-amide)] | 0.018 | 0.24 | (13) | 3.22 | (178) | – | –
CC(=O)NC[C@@H]1CCN(C(=O)Nc2nc(C)c(-c3ccnc(C(C)(C)C(F)(F)F)c3)s2)[C@@H]1C(N)=O [Example 6, (2S,3S)-3-(Acetylamino-methyl)-pyrrolidine-1,2-dicarboxylic acid 2-amide 1-({4-methyl-5-[2-(2,2,2-trifluoro-1,1-dimethyl-ethyl)-pyridin-4-yl]-thiazol-2-yl}-amide)] | 0.013 | 0.684 | (52) | 0.99 | (76) | – | –
Cc1nc(NC(=O)N2CC[C@@H](CN3CCOCC3)[C@H]2C(N)=O)sc1-c1ccnc(C2(C)CC2)c1 [Example 7, (2S,3S)-3-Morpholin-4-ylmethyl-pyrrolidine-1,2-dicarboxylic acid 2-amide 1-({4-methyl-5-[2-(1-methyl-cyclopropyl)-pyridin-4-yl]-thiazol-2-yl}-amide)] | 0.038 | 0.19 | (5) | 5.15 | (136) | – | –
COC[C@@H]1CCN(C(=O)Nc2nc(C)c(-c3ccnc(C(C)(C)C(F)(F)F)c3)s2)[C@@H]1C(N)=O [Example 14, (2S,3R)-3-Methoxymethyl-pyrrolidine-1,2-dicarboxylic acid 2-amide 1-({4-methyl-5-[2-(2,2,2-trifluoro-1,1-dimethyl-ethyl)-pyridin-4-yl]-thiazol-2-yl}-amide)] | 0.012 | 0.11 | (9) | 1.47 | (122) | – | –
Cc1nc(NC(=O)N2CC[C@@H](C)[C@H]2C(N)=O)sc1-c1ccnc(C(C)(C)C)c1 [Example 16, (2S,3R)-3-Methyl-pyrrolidine-1,2-dicarboxylic acid 2-amide 1-{[5-(2-tert-butyl-pyridin-4-yl)-4-methyl-thiazol-2-yl]-amide}] | 0.009 | 0.113 | (13) | 2.17 | (241) | – | –

Other lines, results leading:

IC50 (PI3Kα) [µM] | IC50 (PI3Kδ) [µM] | PI3Kdelta (selectivity) (PI3Kδ) | IC50 (PI3Kβ) [µM] | PI3Kbeta (selectivity) (PI3Kβ) | IC50 (PI3Kγ) [µM] | PI3Kgamma (selectivity) (PI3Kγ) | SMILES
0.053 | 0.8 | (15) | > 9.1 | (>171) | 1.08 | (20) | Cc1nc(NC(=O)N2CCC(C)(C)C2C(N)=O)sc1-c1ccnc(C2(C)CC2)c1 (racemic) [Example 3, (rac)-3,3-Dimethyl-pyrrolidine-1,2-dicarboxylic acid 2-amide 1-({4-methyl-5-[2-(1-methyl-cyclopropyl)-pyridin-4-yl]-thiazol-2-yl}-amide)]
0.091 | 0.437 | (4) | 6.96 | (76) | 1.68 | (18) | Cc1nc(NC(=O)N2CCC(C)(C)C2C(N)=O)sc1-c1ccnc(C(C)(C)C(F)(F)F)c1 (racemic) [Example 4, (rac)-3,3-Dimethyl-pyrrolidine-1,2-dicarboxylic acid 2-amide 1-({4-methyl-5-[2-(2,2,2-trifluoro-1,1-dimethyl-ethyl)-pyridin-4-yl]-thiazol-2-yl}-amide)]
0.006 | 0.049 | (8) | 2.29 | (380) | – | – | Cc1nc(NC(=O)N2CC[C@@H](CN3CCOCC3)[C@H]2C(N)=O)sc1-c1ccnc(C(C)(C)C(F)(F)F)c1 [Example 8, (2S,3S)-3-Morpholin-4-ylmethyl-pyrrolidine-1,2-dicarboxylic acid 2-amide 1-({4-methyl-5-[2-(2,2,2-trifluoro-1,1-dimethyl-ethyl)-pyridin-4-yl]-thiazol-2-yl}-amide)]
0.01 | 0.586 | (58) | > 9.1 | (910) | 0.2 | (20) | Cc1nc(NC(=O)N2CC[C@@H](C)[C@H]2C(N)=O)sc1-c1ccnc(C(C)(C)F)n1 [Example 9, (2S,3R)-3-Methyl-pyrrolidine-1,2-dicarboxylic acid 2-amide 1-({5-[2-(1-fluoro-1-methyl-ethyl)-pyrimidin-4-yl]-4-methyl-thiazol-2-yl}-amide)]
0.0045 | 0.033 | (7) | 1.59 | (353) | 0.076 | (16) | [2H]C([2H])([2H])C(c1nccc(-c2sc(NC(=O)N3CC[C@@H](C)[C@H]3C(N)=O)nc2C)n1)(C([2H])([2H])[2H])C([2H])([2H])[2H] [Example 12, (2S,3R)-3-Methylpyrrolidine-1,2-dicarboxylic acid 2-amide 1-{[5-(2-d9-tert-butyl-pyrimidin-4-yl)-4-methyl-thiazol-2-yl]-amide}]
0.004 | 0.049 | (12) | 0.938 | (234) | 0.418 | (104) | [2H]C([2H])([2H])C([2H])([2H])N(c1cncc(-c2sc(NC(=O)N3CC[C@@H](C)[C@H]3C(N)=O)nc2C)n1)C([2H])([2H])C([2H])([2H])[2H] [Example 13, (2S,3R)-3-Methyl-pyrrolidine-1,2-dicarboxylic acid 2-amide 1-{[5-(6-d10-diethylamino-pyrazin-2-yl)-4-methyl-thiazol-2-yl]-amide}]
0.017 | 0.093 | (5) | 3.27 | (192) | – | – | Cc1nc(NC(=O)N2CC[C@@H](CN(C)C)[C@H]2C(N)=O)sc1-c1ccnc(C(C)(C)C(F)(F)F)c1 [Example 15, (2S,3S)-3-Dimethylaminomethyl-pyrrolidine-1,2-dicarboxylic acid 2-amide 1-({4-methyl-5-[2-(2,2,2-trifluoro-1,1-dimethyl-ethyl)-pyridin-4-yl]-thiazol-2-yl}-amide)]
